Experimental data from patent publication US9938249B2, “Anti-amyloid compounds containing benzofurazan” (Treventis Corporation, priority 2014, dated 2018).

Target: Terminally biotinylated beta-amyloid (Aβ42) (Homo sapiens, UniProt P05067)
Assay: Aβ42 biotinylated (biotin-AB) oligomerization assay, NeutrAvidin capture ELISA
Format: biochemical
Conditions: approximate value; 1 hr oligomerization at room temperature; read-out: IC50 Aβ 42-bio
Description: Aβ42 Biotinylated Assay Terminally biotinylated beta-amyloid (biotin-AB) was dissolved in HFIP at the concentration of 1 mg/ml and aliquoted to 50 μl/tube in 0.65 ml colored microfuge tubes (Fisher 02-681-248). The aliquots were diluted immediately by adding 450 μl of HFIP to 0.1 mg/ml. Approximately 46 ul (containing approximately 4.6 ug of biotin-AB) were taken from a tube, 100 ul of HFIP added, vortexed, and dried to a thin film under an N2 stream. 100 μl of trifluoroacetic acid (TFA) was added and vortexed. After 10 minute incubation at room temperature in a hood, resulting in disaggregation of seeds, the sample was vortexed again and dried again to a thin film under an N2 stream. 100 μl of HFIP was added, mixed, and the biotin-AB sample was dried for a third time under an N2 stream to remove residual TFA. The treated biotin-AB was dissolved in DMSO to a final peptide concentration of […] (SOX). An ELISA “capture” plate (Costar 9018) was coated with 50 μl of 1 μg/ml NeutrAvidin™ (NA) in 10 mM sodium phosphate buffer, pH 7.5. (NeutrAvidin can be prepared as 1 mg/ml (1000×) in milliQ water/10% glycerol and stored at −80° C. before use.) The plate was sealed plate with adhesive film and stored at 4° C. overnight, then blocked for 2 hours (unsealed) at room temperature with 200 μl/well OFB+0.1% v/v Tween 20. The “capture” plate was allowed to come to room temperature. Several dilutions of test compound were prepared with 100% DMSO, according to the desired concentration to be tested. 2.5 μl of diluted test compound was pipetted into the bottom of each well of a 96-well “dilution” polypropylene plate (Costar 3365), to which was added 250 ul of Oligomer Formation Buffer (OFB: 20 mM sodium phosphate, pH 7.5-150 mM NaCl). To begin oligomerization, 2 μl/well of the biotin-AB was added to the bottom of each well of a 96-well “reaction” polypropylene plate (Costar 3365) and 100 ul of each well of the “dilution” plate was transferred to the “reaction” plate (final concentration of DMSO being up to 1%). The reaction plate was sealed and incubated for 1 hr at room temperature without shaking. The reaction was then stopped by the addition of 50 ul of 0.3% Tween 20 in water. The “capture” plate blocking solution was removed, and 50 ul of each well of the “reaction” plate was transferred to each well of the “capture” plate. The “capture” plate was sealed and incubated for 2 hours at room temperature with shaking at 150 rpm. The “capture” plate was then washed on a plate washer (3×) with 200 ul/well TBST (20 mM Tris-HCL, pH 7.5/150 mM NaCl/0.1% Tween 20). 50 ul of Streptavidin-horseradish […] (1:20,000 dilution) in OFB+0.1% Tween 20 was added to each well, the “capture” plate was sealed and incubated for 1 hr with shaking at 150 rpm. As before, the plate was washed, then 100 ul of TMB/H2O2 substrate solution was added to each well. After 5-10 minutes, 100 ul of 1% v/v sulfuric acid was added and the absorbance of each well was read at 450 nm using a standard plate reader. Data is summarized in the table below; numbers given in parenthesis for the Aβ 40 Thioflavin T assays are the values in that particular experiment for compound ID 1027, given as the first entry in this table for structural comparison. “IC50 Aβ42-bio” column refers to the approximate value of the Aβ42 biotinylated assay IC50 in micromoles/L.

Terminally biotinylated beta-amyloid (Aβ42), sequence (P05067 672-713, species assumed): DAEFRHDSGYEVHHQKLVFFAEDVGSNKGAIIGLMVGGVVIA

Compound	IC50 [µM]
NC(=O)c1cc(N2CC(CN3CCCC3)C2)c2nonc2c1 [compound 1548]	25.3
OC(c1ccc(-c2cc(N3CC(CN4CCCC4)C3)c3nonc3c2)nc1)C(F)(F)F (stereo not shown) [compound 1545]	8.4
CC(=O)NC1CCN(c2cc(-c3ccc(C4(O)COC4)cc3)cc3nonc23)CC1 [compound 1735]	2.4
OCc1csc(-c2cc(N3CC(CN4CCOCC4)C3)c3nonc3c2)n1 [compound 1565]	> 20
OC1(c2ccccc2-c2cc(N3CC(CN4CCOCC4)C3)c3nonc3c2)COC1 [compound 1663]	> 20
OC(c1nc(-c2cc(N3CC(CN4CCCC4)C3)c3nonc3c2)cs1)C(F)(F)F (stereo not shown) [compound 1567]	26.9
OC(c1ccncc1-c1cc(N2CC(CN3CCOCC3)C2)c2nonc2c1)C(F)(F)F (stereo not shown) [compound 1636, 2,2,2-trifluoro-1-(3-(7-(3-(morpholinomethyl)azetidin-1-yl)benzo[c][1,2,5]oxadiazol-5-yl)pyridin-4-yl) ethan-1-ol]	10.3
OC1(c2ccc(-c3cc(N4CCC(CN5CCOCC5)CC4)c4nonc4c3)cc2)COC1 [compound 1736]	9.7
CC(C)(O)c1cccc(-c2cc(N3CC(CN4CCOCC4)C3)c3nonc3c2)c1 [compound 1617]	14.6
OC(c1ccnc(-c2cc(N3CC(CN4CCCC4)C3)c3nonc3c2)c1)C(F)(F)F (stereo not shown) [compound 1587, 2,2,2-trifluoro-1-(2-(7-(3-(pyrrolidin-1-ylmethyl)azetidin-1-yl)benzo[c][1,2,5]oxadiazol-5-yl)pyridin-4-yl)ethan-1-ol]	12.3
OC1(c2ccc(-c3cc(N4CCC(N5CCOCC5)C4)c4nonc4c3)cc2)COC1 (stereo not shown) [compound 1719]	13
Cn1ncc(C(O)C(F)(F)F)c1-c1cc(N2CC(CN3CCOCC3)C2)c2nonc2c1 (stereo not shown) [compound 1651]	30.1
COc1cc(N2CC(CN3CCOCC3)C2)c2nonc2c1C [compound 1613, 5-methoxy-4-methyl-7-(3-(morpholinomethyl)azetidin-1-yl)benzo[c][1,2,5]oxadiazole]	> 20
CN(C)C(=O)c1ccccc1-c1cc(N2CC(CN3CCOCC3)C2)c2nonc2c1 [compound 1615]	> 20
OCc1cnc(-c2cc(N3CC(CN4CCOCC4)C3)c3nonc3c2)s1 [compound 1594]	> 20
OCc1nc(-c2cc(N3CC(CN4CCOCC4)C3)c3nonc3c2)no1 [compound 1629]	15.7
CC(=O)N(C1CC1)C(C)c1cc(N2CC(CN3CCCC3)C2)c2nonc2c1 (stereo not shown) [compound 1550]	5.3
CSc1cc(N2CC(CN3CCOCC3)C2)c2nonc2c1 [compound 1612, 6-(methylthio)-4-(3-(morpholinomethyl)azetidin-1-yl) benzo[c][1,2,5]oxadiazole]	> 20
OC(c1cnc(-c2cc(N3CC(CN4CCCC4)C3)c3nonc3c2)s1)C(F)(F)F (stereo not shown) [compound 1546]	8.4
O=C(c1cc(N2CC(CN3CCCC3)C2)c2nonc2c1)N1CCCCC1 [compound 1552]	5.7
OC(c1cncc(-c2cc(N3CC(CN4CCCC4)C3)c3nonc3c2)c1)C(F)(F)F (stereo not shown) [compound 1544]	3.9
Clc1cc(Cl)cc(-c2cc(N3CC(CN4CCOCC4)C3)c3nonc3c2)c1 [compound 1575, 6-(3,5-dichlorophenyl)-4-(3-(morpholinomethyl)azetidin-1-yl) benzo[c][1,2,5]oxadiazole]	4
OCc1nc(-c2cc(N3CC(CN4CCOCC4)C3)c3nonc3c2)cs1 [compound 1566]	> 20

Compound	IC50 [µM]
OC1(c2cccc(-c3cc(N4CC(CN5CCOCC5)C4)c4nonc4c3)c2)COC1 [compound 1638]	3
COc1ncccc1-c1cc(N2CC(CN3CCOCC3)C2)c2nonc2c1 [compound 1658, 6-(2-methoxypyridin-3-yl)-4-(3-(morpholinomethyl)azetidin-1-yl) benzo[c][1,2,5]oxadiazole]	> 20
OC1(c2ccc(-c3cc(N4CC(CN5CCOCC5)C4)c4nonc4c3)cc2)COC1 [compound 1639]	3.2
OC(c1cnc(-c2cc(N3CC(CN4CCOCC4)C3)c3nonc3c2)s1)C(F)(F)F (stereo not shown) [compound 1625]	4.2
OC(c1cncc(-c2cc(N3CC(CN4CCOCC4)C3)c3nonc3c2)c1)C(F)(F)F (stereo not shown) [compound 1621, 2,2,2-trifluoro-1-(5-(7-(3-(morpholinomethyl)azetidin-1-yl)benzo[c][1,2,5]oxadiazol-5-yl)pyridin-3-yl)ethan-1-ol]	16.7
COc1cc(-c2cc(N3CC(CN4CCOCC4)C3)c3nonc3c2)ccc1F [compound 1584, 6-(4-fluoro-3-methoxyphenyl)-4-(3-(morpholinomethyl)azetidin-1-yl) benzo[c][1,2,5]oxadiazole]	7
N#Cc1cccc(-c2cc(N3CC(CN4CCOCC4)C3)c3nonc3c2)c1 [compound 1577, 3-(7-(3-(morpholinomethyl)azetidin-1-yl)benzo[c][1,2,5]oxadiazol-5-yl)benzonitrile]	14.8
OC(CCc1cc(N2CC(CN3CCCC3)C2)c2nonc2c1)C(F)(F)F (stereo not shown) [compound 1553]	12.1
Fc1ccc(-c2cc(N3CC(CN4CCCC4)C3)c3nonc3c2)cc1 [compound 1547]	12
OC(c1coc(-c2cc(N3CC(CN4CCOCC4)C3)c3nonc3c2)n1)C(F)(F)F (stereo not shown) [compound 1608, 2,2,2-trifluoro-1-(2-(7-(3-(morpholinomethyl)azetidin-1-yl)benzo[c][1,2,5]oxadiazol-5-yl)oxazol-4-yl)ethan-1-ol]	8.6
OCc1cnc(-c2cc(N3CC(CN4CCOCC4)C3)c3nonc3c2)o1 [compound 1607, (2-(7-(3-(morpholinomethyl)azetidin-1-yl)benzo[c][1,2,5]oxadiazol-5-yl)oxazol-5-yl)methanol]	> 20
COc1cc(N2CC(CN3CCOCC3)C2)c2nonc2c1 [compound 1611, 6-methoxy-4-(3-(morpholinomethyl)azetidin-1-yl)benzo[c][1,2,5]oxadiazole]	> 20
CS(=O)(=O)N1CCCCC1c1cc(N2CC(CN3CCCC3)C2)c2nonc2c1 (stereo not shown) [compound 1554]	8.3
CN1CCCCC1c1cc(N2CC(CN3CCCC3)C2)c2nonc2c1 (stereo not shown) [compound 1557]	18.7
Cc1ccc(C)c(-c2cc(N3CC(CN4CCCC4)C3)c3nonc3c2)c1 [compound 1559]	7.6
COc1ccc(-c2cc(N3CC(CN4CCOCC4)C3)c3nonc3c2)cn1 [compound 1670, 6-(6-methoxypyridin-3-yl)-4-(3-(morpholinomethyl)azetidin-1-yl) benzo[c][1,2,5]oxadiazole]	11.2
c1nc(-c2cc(N3CC(CN4CCCC4)C3)c3nonc3c2)cs1 [compound 1561]	6.9
OC(c1csc(-c2cc(N3CC(CN4CCOCC4)C3)c3nonc3c2)n1)C(F)(F)F (stereo not shown) [compound 1626]	10.9
OC(/C=C/c1cc(N2CC(CN3CCOCC3)C2)c2nonc2c1)C(F)(F)F (stereo not shown) [compound 1665, (E)-1,1,1-trifluoro-4-(7-(3-(morpholinomethyl)azetidin-1-yl)benzo[c][1,2,5]oxadiazol-5-yl)but-3-en-2-ol]	21.8
OCc1ccc(-c2cc(N3CC(CN4CCOCC4)C3)c3nonc3c2)cc1 [compound 1592]	15.1
OC(c1ncoc1-c1cc(N2CC(CN3CCOCC3)C2)c2nonc2c1)C(F)(F)F (stereo not shown) [compound 1667]	17.5
COCCN1CCCCC1c1cc(N2CC(CN3CCCC3)C2)c2nonc2c1 (stereo not shown) [compound 1556]	6.6
OC(c1ccc(-c2cc(N3CC(CN4CCOCC4)C3)c3nonc3c2)cn1)C(F)(F)F (stereo not shown) [compound 1618, 2,2,2-trifluoro-1-(5-(7-(3-(morpholinomethyl)azetidin-1-yl)benzo[c][1,2,5]oxadiazol-5-yl)pyridin-2-yl)ethan-1-ol]	4.98
